# According to paper PMC11942486, “The Impact of a Quinone Scaffold on Thermo-TRPs Modulation by Dimethylheptyl Phytocannabinoids” (International Journal of Molecular Sciences, 2025):
# Where two headings read alike, the source gives them in different places.
# Experiments:
# Format in all cases: cell-based
# human TRPV1 = target: T1, human TRPV1 (Homo sapiens, UniProt Q8NER1); assay: Thermo-TRP assay: [Ca2+]i elevation (Fluo-4) in HEK-293 cells transfected with TRPV1
# T1 construct: expressed in transfected cells
# T1 sequence (Q8NER1 whole entry): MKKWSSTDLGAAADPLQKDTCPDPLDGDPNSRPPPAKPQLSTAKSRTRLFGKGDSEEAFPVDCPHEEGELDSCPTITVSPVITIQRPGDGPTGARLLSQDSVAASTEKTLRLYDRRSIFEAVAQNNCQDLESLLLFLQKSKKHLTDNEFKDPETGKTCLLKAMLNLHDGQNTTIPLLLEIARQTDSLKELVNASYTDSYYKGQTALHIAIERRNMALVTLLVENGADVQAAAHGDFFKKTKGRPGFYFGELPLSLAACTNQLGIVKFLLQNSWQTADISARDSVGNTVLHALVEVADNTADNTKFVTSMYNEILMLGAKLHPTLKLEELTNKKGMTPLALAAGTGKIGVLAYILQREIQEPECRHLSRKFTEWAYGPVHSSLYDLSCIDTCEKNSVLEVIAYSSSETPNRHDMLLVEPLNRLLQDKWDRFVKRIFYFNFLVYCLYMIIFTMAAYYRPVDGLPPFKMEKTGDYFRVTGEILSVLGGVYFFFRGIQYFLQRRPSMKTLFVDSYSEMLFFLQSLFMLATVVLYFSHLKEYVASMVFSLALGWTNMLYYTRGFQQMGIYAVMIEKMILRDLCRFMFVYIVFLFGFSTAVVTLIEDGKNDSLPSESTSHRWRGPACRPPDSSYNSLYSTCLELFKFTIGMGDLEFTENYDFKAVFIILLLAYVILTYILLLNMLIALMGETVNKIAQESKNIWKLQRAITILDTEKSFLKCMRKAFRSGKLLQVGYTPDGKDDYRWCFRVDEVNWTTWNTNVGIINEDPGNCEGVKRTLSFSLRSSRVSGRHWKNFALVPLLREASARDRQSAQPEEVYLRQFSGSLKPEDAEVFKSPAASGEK
# Protocol: (§1) The compounds were tested on HEK-293 cells either stably transfected with rat TRPA1, TRPV2, TRPV3, TRPV4, TRPM8 or human TRPV1 or not-transfected, by performing a continuous monitoring of the intracellular calcium ([Ca^2+]i) elevation during the experiments, following the protocol already described. […] Cell fluorescence before and after the addition of various concentrations of tested compounds was measured, normalizing the effects against the response to ionomycin (IM, 4 μM). The effect on [Ca^2+]i in non-transfected HEK-293 cells were used as the baseline and subtracted from the values obtained from the transfected ones. The efficacy of the agonists was determined by normalizing their effect to the maximum Ca^2+ influx effect on [Ca^2+]i observed with application of 4μM ionomycin. The effects of TRPA1 agonists are expressed as a percentage of the effect obtained with 100 μM allyl isothiocyanate (AITC). In the TRPV3 assay, rat TRPV3-expressing HEK-293 cells were first sensitized with the structurally unrelated agonist 2-aminoethoxydiphenyl borate (100 μM). For the TRPM8, the experiments were carried out at 22 °C. The potency (EC50 values) is determined as the concentration required to produce half-maximal increases in [Ca^2+]i. […] A dose-response curve fitting (sigmoidal dose-response variable slope) and parameter estimation were performed with Graph-Pad Prism 8 (GraphPad Software Inc., San Diego, CA, USA). All determinations were performed at least in triplicate.
# rat TRPM8 = target: T2, rat TRPM8 (Rattus norvegicus, UniProt Q8R455); assay: Thermo-TRP assay: [Ca2+]i elevation (Fluo-4) in HEK-293 cells transfected with TRPM8
# T2 construct: expressed in transfected cells
# T2 sequence (Q8R455 whole entry): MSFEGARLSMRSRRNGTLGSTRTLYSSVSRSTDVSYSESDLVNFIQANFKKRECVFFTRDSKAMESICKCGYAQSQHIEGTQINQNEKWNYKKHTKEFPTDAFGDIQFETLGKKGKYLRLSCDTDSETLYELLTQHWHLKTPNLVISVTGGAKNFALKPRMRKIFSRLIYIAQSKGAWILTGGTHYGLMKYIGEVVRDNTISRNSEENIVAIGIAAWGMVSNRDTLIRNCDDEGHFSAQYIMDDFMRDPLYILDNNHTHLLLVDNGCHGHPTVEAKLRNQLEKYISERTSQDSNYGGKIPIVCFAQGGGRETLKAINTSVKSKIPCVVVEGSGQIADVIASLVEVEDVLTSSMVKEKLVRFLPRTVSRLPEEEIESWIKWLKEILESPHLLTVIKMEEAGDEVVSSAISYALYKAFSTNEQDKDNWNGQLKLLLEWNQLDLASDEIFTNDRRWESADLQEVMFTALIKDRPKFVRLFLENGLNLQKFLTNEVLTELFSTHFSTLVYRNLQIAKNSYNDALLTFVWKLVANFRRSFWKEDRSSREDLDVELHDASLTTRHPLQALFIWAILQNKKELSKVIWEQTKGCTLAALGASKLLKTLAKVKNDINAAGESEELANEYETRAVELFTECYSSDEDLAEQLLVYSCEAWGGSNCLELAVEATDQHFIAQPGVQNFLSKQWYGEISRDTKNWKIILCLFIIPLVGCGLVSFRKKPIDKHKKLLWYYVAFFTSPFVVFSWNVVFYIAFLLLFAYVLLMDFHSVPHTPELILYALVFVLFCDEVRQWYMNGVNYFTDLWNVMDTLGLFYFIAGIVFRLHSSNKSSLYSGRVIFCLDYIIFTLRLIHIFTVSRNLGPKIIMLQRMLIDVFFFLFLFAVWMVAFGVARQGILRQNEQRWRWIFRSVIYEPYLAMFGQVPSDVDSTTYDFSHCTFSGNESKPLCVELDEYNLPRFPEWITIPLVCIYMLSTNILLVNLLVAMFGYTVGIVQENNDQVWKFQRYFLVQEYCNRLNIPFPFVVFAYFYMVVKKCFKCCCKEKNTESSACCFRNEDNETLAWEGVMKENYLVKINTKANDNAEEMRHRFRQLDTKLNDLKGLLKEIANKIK
# Protocol: as §1
# rat TRPV4 = target: T3, rat TRPV4 (Rattus norvegicus, UniProt Q9ERZ8); assay: Thermo-TRP assay: [Ca2+]i elevation (Fluo-4) in HEK-293 cells transfected with TRPV4
# T3 construct: expressed in transfected cells
# T3 sequence (Q9ERZ8 whole entry): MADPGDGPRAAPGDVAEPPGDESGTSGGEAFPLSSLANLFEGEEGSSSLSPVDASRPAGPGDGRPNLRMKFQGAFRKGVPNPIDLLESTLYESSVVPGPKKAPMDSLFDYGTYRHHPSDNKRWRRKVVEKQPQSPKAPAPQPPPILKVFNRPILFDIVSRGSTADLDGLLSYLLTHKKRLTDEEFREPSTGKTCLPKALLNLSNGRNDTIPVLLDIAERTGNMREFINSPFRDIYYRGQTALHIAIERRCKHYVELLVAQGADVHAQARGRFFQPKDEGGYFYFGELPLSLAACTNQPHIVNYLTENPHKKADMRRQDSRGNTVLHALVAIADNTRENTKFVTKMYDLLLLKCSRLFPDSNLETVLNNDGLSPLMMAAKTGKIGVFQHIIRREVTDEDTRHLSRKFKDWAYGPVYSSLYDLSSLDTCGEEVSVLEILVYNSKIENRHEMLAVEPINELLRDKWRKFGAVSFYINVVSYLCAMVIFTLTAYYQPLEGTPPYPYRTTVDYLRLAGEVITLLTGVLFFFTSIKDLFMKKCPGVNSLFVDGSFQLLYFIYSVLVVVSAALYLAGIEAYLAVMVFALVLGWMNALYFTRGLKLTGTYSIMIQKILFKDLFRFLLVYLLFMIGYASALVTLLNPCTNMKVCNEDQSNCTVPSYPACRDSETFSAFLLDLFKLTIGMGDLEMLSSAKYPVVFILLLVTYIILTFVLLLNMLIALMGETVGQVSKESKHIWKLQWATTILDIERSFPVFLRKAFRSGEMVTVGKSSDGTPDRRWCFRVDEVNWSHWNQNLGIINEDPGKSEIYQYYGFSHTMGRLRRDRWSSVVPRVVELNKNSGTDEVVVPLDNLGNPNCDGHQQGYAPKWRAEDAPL
# Protocol: as §1
# rat TRPV2 = target: T4, rat TRPV2 (Rattus norvegicus, UniProt Q9WUD2); assay: Thermo-TRP assay: [Ca2+]i elevation (Fluo-4) in HEK-293 cells transfected with TRPV2; conditions: for TRPV2 Efficacy (% Ionomycin 4 μM): agonist effect as % of ionomycin 4 μM; for EC50: half-maximal increase in [Ca2+]i, read-out: TRPV2 Potency EC50; for IC50: vs CBD 2 μM
# T4 construct: expressed in transfected cells
# T4 sequence (Q9WUD2 1-761): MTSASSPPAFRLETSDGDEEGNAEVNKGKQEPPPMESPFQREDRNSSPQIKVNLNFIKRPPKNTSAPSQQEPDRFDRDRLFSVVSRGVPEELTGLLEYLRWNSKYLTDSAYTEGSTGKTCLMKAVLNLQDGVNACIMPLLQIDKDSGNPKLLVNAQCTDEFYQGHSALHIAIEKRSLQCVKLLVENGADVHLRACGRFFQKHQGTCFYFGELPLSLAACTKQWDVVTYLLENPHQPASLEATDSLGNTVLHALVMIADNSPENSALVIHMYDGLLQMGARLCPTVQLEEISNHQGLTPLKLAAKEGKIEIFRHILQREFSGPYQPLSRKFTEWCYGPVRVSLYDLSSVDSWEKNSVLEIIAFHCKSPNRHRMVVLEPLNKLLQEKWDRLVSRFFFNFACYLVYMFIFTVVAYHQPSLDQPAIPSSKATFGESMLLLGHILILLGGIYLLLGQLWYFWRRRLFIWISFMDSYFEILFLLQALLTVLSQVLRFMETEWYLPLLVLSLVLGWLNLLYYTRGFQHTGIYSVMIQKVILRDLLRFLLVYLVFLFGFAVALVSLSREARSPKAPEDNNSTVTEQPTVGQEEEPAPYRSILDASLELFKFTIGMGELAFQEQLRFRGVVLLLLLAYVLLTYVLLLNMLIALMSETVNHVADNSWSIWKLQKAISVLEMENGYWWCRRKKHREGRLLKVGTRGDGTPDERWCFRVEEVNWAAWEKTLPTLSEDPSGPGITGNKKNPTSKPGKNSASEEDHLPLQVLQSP
# Protocol: The compounds were tested on HEK-293 cells either stably transfected with rat TRPA1, TRPV2, TRPV3, TRPV4, TRPM8 or human TRPV1 or not-transfected, by performing a continuous monitoring of the intracellular calcium ([Ca^2+]i) elevation during the experiments, following the protocol already described. On the day of the experiment, the cells were loaded for 1 h in the dark at room temperature with the fluorescent probe Fluo-4 AM (4 μM in DMSO containing 0.02% Pluronic F-127). The cells were rinsed, resuspended in Tyrode’s solution (145 mM NaCl, 2.5 mM KCl, 1.5 mM CaCl2, 1.2 mM MgCl2, 10 mM D-glucose, and 10 mM HEPES, pH 7.4), and transferred to a quartz cuvette of a spectrofluorimeter (PerkinElmer LS50B; λEX = 488 nm, λEM = 516 nm) equipped with a PTP-1 fluorescence Peltier system (PerkinElmer Life and Analytical Sciences, Waltham, MA, USA) under continuous stirring. Cell fluorescence before and after the addition of various concentrations of tested compounds was measured, normalizing the effects against the response to ionomycin (IM, 4 μM). The effect on [Ca^2+]i in non-transfected HEK-293 cells were used as the baseline and subtracted from the values obtained from the transfected ones. The efficacy of the agonists was determined by normalizing their effect to the maximum Ca^2+ influx effect on [Ca^2+]i observed with application of 4μM ionomycin. The effects of TRPA1 agonists are expressed as a percentage of the effect obtained with 100 μM allyl isothiocyanate (AITC). In the TRPV3 assay, rat TRPV3-expressing HEK-293 cells were first sensitized with the structurally unrelated agonist 2-aminoethoxydiphenyl borate (100 μM). For the TRPM8, the experiments were carried out at 22 °C. The potency (EC50 values) is determined as the concentration required to produce half-maximal increases in [Ca^2+]i. Antagonist/desensitizing behavior is evaluated against the agonist of the TRP analyzed by adding the compounds directly in the quartz cuvette 5 min before stimulation of cells with the agonist (allylisothiocyanate (100 μM) for TRPA1, capsaicin (0.1 μM) for TRPV1, cannabidiol (2 μM) for TRPV2, thymol (100 μM) for TRPV3, GSK1016790A (10 nM) for TRPV4, and icilin (0.25 μM) for TRPM8). The IC50 value is expressed as the concentration exerting a half-maximal inhibition of the agonist effect, taking as 100% the effect on [Ca^2+]i exerted by the agonist alone. A dose-response curve fitting (sigmoidal dose-response variable slope) and parameter estimation were performed with Graph-Pad Prism 8 (GraphPad Software Inc., San Diego, CA, USA). All determinations were performed at least in triplicate.
# [1] = vs Capsaicin 0.1 μM, read-out: IC50 TRPV1
# [2] = vs Icilin 0.25 μM, 22 °C, read-out: IC50 TRPM8
# [3] = vs GSK1016790A 10 nM, read-out: IC50 TRPV4
Compound,IC50 (human TRPV1; [1]),IC50 (rat TRPM8; [2]),IC50 (rat TRPV4; [3]),TRPV2 Efficacy (% Ionomycin 4 μM) (rat TRPV2),EC50 (rat TRPV2),IC50 (rat TRPV2),IC50 (human TRPV1),IC50 (rat TRPM8),IC50 (rat TRPV4)
C=C(C)[C@@H]1CCC(C)=C[C@H]1C1=C(O)C(=O)C(C(C)(C)CCCCCC)=CC1=O [5b],> 100 µM,1.2 ± 0.1 µM,> 100 µM,30.6 ± 6.5%,12.2 ± 9.7 µM,5.45 ± 0.5 µM,–,–,–
CCCCCCC(C)(C)C1=CC2=C(C(=O)C1=O)[C@@H]1CC(C)=CC[C@H]1C(C)(C)O2 [6b],–,–,–,78.1 ± 4.0%,> 50 µM,8.5 ± 0.5 µM,> 100 µM,> 100 µM,> 100 µM
"CCCCCCC(C)(C)C1=CC(=O)C(C/C=C(\C)CCC=C(C)C)=C(O)C1=O [7b, p-DMHCBGQ]",> 100 µM,14.9 ± 3.9 µM,> 50 µM,47.8 ± 1.4%,30.5 ± 3.9 µM,23.7 ± 2.9 µM,–,–,–
CCCCCCC(C)(C)C1=CC(=O)C2=C(OC(C)(CCC=C(C)C)C=C2)C1=O (stereo not drawn) [8b],> 100 µM,> 100 µM,> 100 µM,31.5 ± 2.9%,> 50 µM,6.9 ± 0.1 µM,–,–,–
